This passage reports EC50 results from US9353081B2, “Bicyclic dihydroquinoline-2-one derivatives” (Hoffmann-La Roche Inc., priority 2011, dated 2016).

SMILES strings stand for the structures.

Assay [1] has as its target human CYP11B1 (Homo sapiens (Human), UniProt P15538). In words: G-402 cellular enzyme assay, human CYP11B1 (cortisol release, HTRF). In kind it is cell-based. Particulars: G-402 cells expressing human CYP11B1; 1 μM Deoxycortisol. The text has this: (§1) Specifically we developed stable G-402 cells expressing ectopically human CYP11B1, human CYP11B2, human CYP11A1, cynomolgus CYP11B1 or cynomolgus CYP11B2 enzyme activity.
(§2) The expression plasmids contains the ORF for either human/cyno CYP11B1 or CYP11B2 under the control of a suitable promoter (CMV-promoter) and a suitable resistance marker (neomycin). Using standard techniques the expression plasmid is transfected into G-402 cells and these cells are then selected for expressing the given resistance markers. Individual cell-clones are then selected and assessed for displaying the desired enzymatic activity using 11-Deoxycorticosterone (Cyp11B2) or 11-Deoxycortisol (Cyp11B1) as a substrate.
(§3) For assaying enzymatic activity, cells were plated onto 96 well plates and incubated for 16 h. An aliquot of the supernatant is then transferred and analyzed for the concentration of the expected product (Aldosterone for CYP11B2; Cortisol for CYP11B1). The concentrations of these steroids can be determined using HTRF assays from CisBio analyzing either Aldosterone or Cortisol.
(§4) Inhibition of the release of produced steroids can be used as a measure of the respective enzyme inhibition by test compounds added during the cellular enzyme assay. The dose dependent inhibition of enzymatic activity by a compound is calculated by means of plotting added inhibitor concentrations x-axes) vs. measured steroid/product level (y-axes). The inhibition is then calculated by fitting the following 4-parameter sigmoidal function (Morgan-Mercer-Flodin (MMF) model) to the raw data points using the least squares method:
(§5) [formula] wherein, A is the maximum y value, B is the EC50 factor determined using XLFit, C is the minimum y value and D is the slope value.
(§6) EC50 values for compounds claimed herein were tested with the G402-based assay system described. Cyp11B2 enzyme activity was tested in presence of 1 μM Deoxycorticosterone and variable amounts of inhibitors; Cyp11B1 enzyme activity was tested in presence of 1 μM Deoxycortisol and variable amounts of inhibitors.

For assay [2], the target named is human CYP11B2 (Homo sapiens (Human), UniProt P19099). As to the kind of experiment: G-402 cellular enzyme assay, human CYP11B2 (aldosterone release, HTRF). To be noted: G-402 cells expressing human CYP11B2; 1 μM Deoxycorticosterone. In kind it is cell-based.
Chain of human CYP11B2 (P19099 25-503): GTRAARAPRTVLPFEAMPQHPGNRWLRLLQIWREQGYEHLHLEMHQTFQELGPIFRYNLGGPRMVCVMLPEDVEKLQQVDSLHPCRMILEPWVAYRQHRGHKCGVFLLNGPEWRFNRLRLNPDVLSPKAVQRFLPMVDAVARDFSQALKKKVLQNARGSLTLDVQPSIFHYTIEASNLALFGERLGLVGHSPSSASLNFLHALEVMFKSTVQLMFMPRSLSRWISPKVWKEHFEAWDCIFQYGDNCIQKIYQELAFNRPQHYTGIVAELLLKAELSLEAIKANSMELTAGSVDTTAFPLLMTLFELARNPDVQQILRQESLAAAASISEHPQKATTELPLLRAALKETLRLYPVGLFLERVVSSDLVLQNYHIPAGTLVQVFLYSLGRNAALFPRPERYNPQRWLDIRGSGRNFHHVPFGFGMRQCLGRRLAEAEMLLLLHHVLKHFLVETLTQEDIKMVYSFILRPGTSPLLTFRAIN
From the text: as §1, §2, §3, §4, §5, §6

Chain of human CYP11B1 (P15538 25-503): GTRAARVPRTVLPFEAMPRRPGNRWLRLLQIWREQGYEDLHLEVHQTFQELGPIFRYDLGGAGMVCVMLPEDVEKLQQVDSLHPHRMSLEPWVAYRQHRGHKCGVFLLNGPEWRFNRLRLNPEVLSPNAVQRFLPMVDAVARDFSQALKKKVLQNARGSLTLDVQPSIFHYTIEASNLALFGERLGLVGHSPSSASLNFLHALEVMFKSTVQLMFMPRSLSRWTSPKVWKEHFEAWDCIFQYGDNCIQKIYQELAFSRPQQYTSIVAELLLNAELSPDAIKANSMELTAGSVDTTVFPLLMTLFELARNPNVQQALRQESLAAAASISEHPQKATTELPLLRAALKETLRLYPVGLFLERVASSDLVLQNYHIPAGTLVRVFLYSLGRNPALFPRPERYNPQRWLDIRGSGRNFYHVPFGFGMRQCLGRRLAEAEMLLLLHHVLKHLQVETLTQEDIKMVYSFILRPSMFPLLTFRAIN

For the molecule `CCS(=O)(=O)NC1CCCc2c(-c3cc4c(cc3Cl)N(C)C(=O)CC4)cncc21` (racemic) [Example 34, (rac)-Ethanesulfonic acid [4-(7-chloro-1-methyl-2-oxo-1,2,3,4-tetrahydro-quinolin-6-yl)-5,6,7,8-tetrahydro-isoquinolin-8-yl]-amide], the EC50 is 34700 nM in assay [1] and 386 nM in assay [2].
As to `C[C@@H](O)C(=O)NC1CCCc2c(-c3ccc4c(c3)CCC(=O)N4C)cncc21` (single isomer, unassigned; (-)) [Example 19, (−)-(2R)-2-Hydroxy-N-((4S or 4R)-4-(1-methyl-2-oxo-1,2,3,4-tetrahydroquinolin-6-yl)-5,6,7,8-tetrahydroisoquinolin-8-yl)propanamide], the EC50 in assay [1] was found to be 13200 nM; in assay [2], 493 nM.
As for `CCS(=O)(=O)NC1CCc2c(-c3cc4c(cc3F)N(C)C(=O)CC4)cncc21` (single isomer, unassigned; (+)) [Example 27, (+)-(R or S)—N-(4-(7-Fluoro-1-methyl-2-oxo-1,2,3,4-tetrahydroquinolin-6-yl)-6,7-dihydro-5H-cyclopenta[c]pyridin-7-yl)ethanesulfonamide], the EC50 in assay [1] came out at 1890 nM; in assay [2], 11.2 nM.
For the molecule `CCC(=O)N[C@H]1c2cncc(-c3cc4c(cc3F)N(C)C(=O)CC4)c2CC[C@H]1F` (single isomer, unassigned) [Example 55, (+)-N-[(7R,8S or 7S,8R)-7-Fluoro-4-(7-fluoro-1-methyl-2-oxo-1,2,3,4-tetrahydro-quinolin-6-yl)-5,6,7,8-tetrahydro-isoquinolin-8-yl]-propionamide], the EC50 is 2760 nM in assay [1] and 158 nM in assay [2].
For the molecule `C[C@@H](O)C(=O)NC1CCCc2c(-c3ccc4c(c3)CCC(=O)N4C)cncc21` (single isomer, unassigned; (+)) [Example 18, (+)-(2R)-2-Hydroxy-N-((4R or 4S)-4-(1-methyl-2-oxo-1,2,3,4-tetrahydroquinolin-6-yl)-5,6,7,8-tetrahydroisoquinolin-8-yl)propanamide], the EC50 turned out to be 1490 nM in assay [1] and 27.9 nM in assay [2].
As to `CCC(=O)NC1CCCc2c(-c3ccc4c(c3)CCC(=O)N4C)cncc21` (racemic) [Example 1, (rac)-N-(4-(1-Methyl-2-oxo-1,2,3,4-tetrahydroquinolin-6-yl)-5,6,7,8-tetrahydroisoquinolin-8-yl)propionamide], the EC50 in assay [1] turned out to be 2370 nM; in assay [2], 30 nM.
As for `CCC(=O)N[C@H]1c2cncc(-c3ccc4c(c3)CCC(=O)N4C)c2CC[C@@H]1F` (single isomer, unassigned) [Example 52, (+)-N-[(7S,8S or 7R,8R)-7-Fluoro-4-(1-methyl-2-oxo-1,2,3,4-tetrahydro-quinolin-6-yl)-5,6,7,8-tetrahydro-isoquinolin-8-yl]-propionamide], the EC50 turned out to be 1590 nM in assay [1] and 25.8 nM in assay [2].
On the same counts, the results for `CCC(=O)NC1CCc2c(-c3ccc4c(c3)CCC(=O)N4C)cncc21` (single isomer, unassigned; (+)) [Example 9, (+)-(S or R)—N-(4-(1-Methyl-2-oxo-1,2,3,4-tetrahydroquinolin-6-yl)-6,7-dihydro-5H-cyclopenta[c]pyridin-7-yl)propionamide] are 570 nM and 13 nM.
Take `C[C@@H](O)C(=O)NC1CCCc2c(-c3ccc4c(c3)CCC(=O)N4C)cncc21` (stereo partly drawn) [Example 16, (2R)-2-Hydroxy-N-((4R,S)-4-(1-methyl-2-oxo-1,2,3,4-tetrahydroquinolin-6-yl)-5,6,7,8-tetrahydroisoquinolin-8-yl)propanamide]: the results for the EC50 in assay [1] and in assay [2] were 1050 nM and 30.8 nM, respectively.
Take `CCS(=O)(=O)NCCN1CCCc2c(-c3ccc4c(c3)CCC(=O)N4C)cncc21` [Example 14, N-(2-(5-(1-Methyl-2-oxo-1,2,3,4-tetrahydroquinolin-6-yl)-3,4-dihydro-1,7-naphthyridin-1(2H)-yl)ethyl)ethanesulfonamide]: the results for the EC50 in assay [1] and in assay [2] were 210 nM and 11 nM, respectively.
With `CCS(=O)(=O)NC1CCCc2c(-c3cc(Cl)c4c(c3)CCC(=O)N4C)cncc21` (racemic) [Example 37, (rac)-Ethanesulfonic acid [4-(8-chloro-1-methyl-2-oxo-1,2,3,4-tetrahydro-quinolin-6-yl)-5,6,7,8-tetrahydro-isoquinolin-8-yl]-amide], the EC50 in assay [1] was 13500 nM; in assay [2], 199 nM.
Take `CCC(=O)NC1CCc2c(-c3cc4c(cc3F)N(C)C(=O)CC4)cncc21` (racemic) [Example 22, (rac)-N-(4-(7-Fluoro-1-methyl-2-oxo-1,2,3,4-tetrahydroquinolin-6-yl)-6,7-dihydro-5H-cyclopenta[c]pyridin-7-yl)propionamide]: the EC50 in assay [1] was 1200 nM; in assay [2], 10.2 nM.
With `CCS(=O)(=O)NC1CCCc2c(-c3cc4c(cc3F)N(C)C(=O)CC4)cncc21` (single isomer, unassigned; (+)) [Example 32, (+)-(R or S)-Ethanesulfonic acid [4-(7-fluoro-1-methyl-2-oxo-1,2,3,4-tetrahydro-quinolin-6-yl)-5,6,7,8-tetrahydro-isoquinolin-8-yl]-amide], the figures for the EC50 in assay [1] and in assay [2] were 4240 nM and 78.2 nM, respectively.
Turning to `CCC(=O)NC1CCCc2c(-c3cc4c(cc3F)N(C)C(=O)CC4)cncc21` (racemic) [Example 28, (rac)-N-[4-(7-Fluoro-1-methyl-2-oxo-1,2,3,4-tetrahydro-quinolin-6-yl)-5,6,7,8-tetrahydroisoquinolin-8-yl]-propionamide], the EC50 is 6820 nM in assay [1] and 74.9 nM in assay [2].
With `CCS(=O)(=O)NC1CCc2c(-c3cc4c(cc3F)N(C)C(=O)CC4)cncc21` (single isomer, unassigned; (-)) [Example 26, (−)-(S or R)—N-(4-(7-Fluoro-1-methyl-2-oxo-1,2,3,4-tetrahydroquinolin-6-yl)-6,7-dihydro-5H-cyclopenta[c]pyridin-7-yl)ethanesulfonamide], the EC50 in assay [2] was found to be 4550 nM.
In assay [2], `CCC(=O)NC1CCc2c(-c3cc(Cl)c4c(c3)CCC(=O)N4C)cncc21` (single isomer, unassigned; (-)) [Example 59, (−)-(S or R)—N-(4-(8-Chloro-1-methyl-2-oxo-1,2,3,4-tetrahydroquinolin-6-yl)-6,7-dihydro-5H-cyclopenta[c]pyridin-7-yl)propionamide] had a concentration giving a half-maximal response (EC50) of 3290 nM.
Same read-out and setting: with `CCC(=O)NC1CCCc2c(-c3cc4c(cc3Cl)N(C)C(=O)CC4)cncc21` (single isomer, unassigned) [Example 35, N—[(R or S)-4-(7-Chloro-1-methyl-2-oxo-1,2,3,4-tetrahydro-quinolin-6-yl)-5,6,7,8-tetrahydro-isoquinolin-8-yl]-propionamide] the figure was 1770 nM.
The molecule `CCC(=O)N[C@@H]1c2cncc(-c3ccc4c(c3)CCC(=O)N4C)c2CC[C@H]1F` (single isomer, unassigned) [Example 50, (−)-N-[(7R,8R or 7S,8S)-7-Fluoro-4-(1-methyl-2-oxo-1,2,3,4-tetrahydro-quinolin-6-yl)-5,6,7,8-tetrahydro-isoquinolin-8-yl]-propionamide] gave an EC50 in assay [2] of 4320 nM.
On to `CCS(=O)(=O)NC1CCCc2c(-c3cc(Cl)c4c(c3)CCC(=O)N4C)cncc21` (single isomer, unassigned; (-)) [Example 39, (−)-Ethanesulfonic acid [(S or R)-4-(8-chloro-1-methyl-2-oxo-1,2,3,4-tetrahydro-quinolin-6-yl)-5,6,7,8-tetrahydro-isoquinolin-8-yl]-amide], for which the EC50 in assay [2] worked out at 130 nM.
Still for that read-out and setting: with `CCC(=O)NC1CCCc2c(-c3cc(Cl)c4c(c3)CCC(=O)N4C)cncc21` (single isomer, unassigned; (-)) [Example 40, (−)-N—[(S or R)-4-(8-Chloro-1-methyl-2-oxo-1,2,3,4-tetrahydro-quinolin-6-yl)-5,6,7,8-tetrahydro-isoquinolin-8-yl]-propionamide] the figure was 126 nM; with `CCC(=O)N[C@@H]1c2cncc(-c3ccc4c(c3)CCC(=O)N4C)c2CC[C@H]1C` (single isomer, unassigned) [Example 47, (−)-N-[(7R,8S or 7S,8R)-7-Methyl-4-(1-methyl-2-oxo-1,2,3,4-tetrahydro-quinolin-6-yl)-5,6,7,8-tetrahydro-isoquinolin-8-yl]-propionamide], 1820 nM; with `CCC(=O)NC1CCc2c(-c3cc4c(cc3F)N(C)C(=O)CC4)cncc21` (single isomer, unassigned; (-)) [Example 23, (−)-(S or R)—N-(4-(7-Fluoro-1-methyl-2-oxo-1,2,3,4-tetrahydroquinolin-6-yl)-6,7-dihydro-5H-cyclopenta[c]pyridin-7-yl)propionamide], 1380 nM.
